One cell line from the supplement of paper PMC10307832 can be followed below.

What all share (assay): relative viability (nuclei count vs DMSO), 5 days (fraction); higher = more cells survive
Compound in assay [1]: C1CNCCC1C2=CC(=NN2)C3=CC=NC=C3 + Cc1cc(Nc2cc(N3CCN(C)CC3)nc(Sc3ccc(NC(=O)C4CC4)cc3)n2)n[nH]1 [Tozasertib] (partner 0.1 µM)
The gist of the method: (§1)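 Cells from lung cancer lines were seeded into 1536-well plates and, one day later, dosed by pin tool. Treatments were either a single drug or a fixed dose of an anchor drug with five library-drug doses (not always all listed) in √10 steps. After 5 days, nuclei were stained in a one-step fixation (final 0.05% Triton X-100, 1% formaldehyde, 1 ug/ml Hoechst) and counted on 4× images, and relative viability is the treated-to-vehicle nuclei ratio, as the median of duplicate plates.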

Compound in assay [2]: C1CNCCC1C2=CC(=NN2)C3=CC=NC=C3 + C[C@]1(O)C[C@@H](c2nc(-c3ccc4ccc(-c5ccccc5)nc4c3)c3c(N)nccn32)C1 [Linsitinib] (partner 1 µM)
In outline:
as §1

Compound in assay [3]: C[C@@H](N)c1ccc(C(=O)Nc2ccnc3[nH]ccc23)cc1 + Cc1nc(Nc2ncc(C(=O)Nc3c(C)cccc3Cl)s2)cc(N2CCN(CCO)CC2)n1 [Dasatinib] (partner 0.075 µM)
In outline:
as §1

Compound in assay [4]: C[C@@H](N)c1ccc(C(=O)Nc2ccnc3[nH]ccc23)cc1 + COc1cccc2cc(-c3nc([C@H]4CC[C@H](C(=O)O)CC4)n4ncnc(N)c34)[nH]c12 [OSI-027] (partner 0.5 µM)
In outline:
as §1

Regarding UMC-11, the relative viability is 0.196 in assay [1] (first compound 0.08 µM); 0.214 in assay [1] (first compound 0.8 µM); 0.205 in assay [1] (first compound 2.53 µM); 0.207 in assay [1] (first compound 8 µM); 0.987 in assay [2] (first compound 0.08 µM); 1.08 in assay [2] (first compound 0.8 µM). In addition, the relative viability in assay [2] (first compound 2.53 µM) is 1.17; in assay [2] (first compound 8 µM), 0.982; in assay [3] (first compound 0.04 µM), 0.543; in assay [3] (first compound 0.1265 µM) it was 0.482; in assay [3] (first compound 0.4 µM) it was 0.58; in assay [3] (first compound 1.265 µM), 0.518. Also, the relative viability in assay [3] (first compound 4 µM) is 0.527; in assay [4] (first compound 0.04 µM), 0.583; in assay [4] (first compound 0.1265 µM) it was 0.565; in assay [4] (first compound 0.4 µM), 0.555; in assay [4] (first compound 1.265 µM) it was 0.453; in assay [4] (first compound 4 µM) it was 0.459.
